# Assay results: ChEMBL document CHEMBL1134202, “Selectivity of inhibition of matrix metalloproteases MMP-3 and MMP-2 by succinyl hydroxamates and their carboxylic acid analogues is dependent on P3' group chirality” (Bioorg Med Chem Lett, 2001)
# How the values were obtained:
# [1] = target: Matrix metalloproteinase-14 (Homo sapiens, UniProt P50281)
# [2] = target: Matrix metalloproteinase-9 (Homo sapiens, UniProt P14780)
# Stromelysin-1 = Stromelysin-1 (Homo sapiens, UniProt P08254)
# Chain of Stromelysin-1 (P08254 whole entry): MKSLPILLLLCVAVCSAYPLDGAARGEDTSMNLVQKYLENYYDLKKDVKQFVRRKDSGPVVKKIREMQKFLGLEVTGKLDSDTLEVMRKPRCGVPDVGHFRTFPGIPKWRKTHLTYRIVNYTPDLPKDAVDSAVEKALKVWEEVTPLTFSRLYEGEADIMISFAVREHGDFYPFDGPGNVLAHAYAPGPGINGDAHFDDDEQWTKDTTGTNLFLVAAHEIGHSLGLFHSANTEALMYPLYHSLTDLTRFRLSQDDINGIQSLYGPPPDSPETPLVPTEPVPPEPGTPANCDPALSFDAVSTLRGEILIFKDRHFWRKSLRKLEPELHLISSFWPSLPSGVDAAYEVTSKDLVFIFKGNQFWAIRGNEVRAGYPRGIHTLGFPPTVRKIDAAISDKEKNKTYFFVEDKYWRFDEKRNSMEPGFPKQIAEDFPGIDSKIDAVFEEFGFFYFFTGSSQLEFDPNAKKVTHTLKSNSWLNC
# Chain of Matrix metalloproteinase-9 (P14780 whole entry): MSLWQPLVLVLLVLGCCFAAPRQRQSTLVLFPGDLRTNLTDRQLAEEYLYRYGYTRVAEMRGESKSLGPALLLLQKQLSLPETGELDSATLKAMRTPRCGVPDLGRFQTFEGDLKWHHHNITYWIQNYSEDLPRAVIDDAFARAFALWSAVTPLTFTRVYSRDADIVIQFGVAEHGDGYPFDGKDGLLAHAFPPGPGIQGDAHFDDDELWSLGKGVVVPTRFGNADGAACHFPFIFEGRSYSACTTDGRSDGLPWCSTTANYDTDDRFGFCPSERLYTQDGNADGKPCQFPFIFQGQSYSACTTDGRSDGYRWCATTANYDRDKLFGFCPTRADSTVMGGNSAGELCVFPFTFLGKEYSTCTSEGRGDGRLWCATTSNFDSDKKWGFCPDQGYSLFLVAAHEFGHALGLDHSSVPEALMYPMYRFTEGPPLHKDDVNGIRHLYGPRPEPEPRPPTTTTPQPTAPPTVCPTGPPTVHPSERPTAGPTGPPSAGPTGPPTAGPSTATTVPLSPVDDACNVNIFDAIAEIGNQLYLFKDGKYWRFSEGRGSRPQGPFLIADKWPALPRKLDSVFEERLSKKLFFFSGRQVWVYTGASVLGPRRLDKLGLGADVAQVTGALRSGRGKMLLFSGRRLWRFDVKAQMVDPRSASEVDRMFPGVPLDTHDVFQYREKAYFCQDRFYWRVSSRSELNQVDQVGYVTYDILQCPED
Compound,IC50 [1] [nM],IC50 [2] [nM],Ki (Stromelysin-1) [nM]
CNC(=O)[C@H](Cc1ccccc1)NC(=O)[C@H](CC(C)C)[C@H](CSc1cccs1)C(=O)NO [BATIMASTAT],2.9,0.67,–
CNC(=O)[C@H](Cc1c[nH]c2ccccc12)NC(=O)[C@@H](CC(=O)NO)CC(C)C [ILOMASTAT],–,–,26
